SMILES strings stand for the structures.

What all share (format): functional
Test [1] relates to A549. The experiment in a line: Antitumor activity against human A549 cells assessed as inhibition of cell growth at 40 uM incubated for 48 hrs by MTS assay relative to control. A general note: Tetrazolium assays rely on reduction of a dye to a coloured formazan, in cell work by metabolically active cells.
Test [2] relates to SMMC-7721. The experiment in a line: Antitumor activity against human SMMC-7721 cells assessed as inhibition of cell growth at 40 uM incubated for 48 hrs by MTS assay relative to control.
Test [3] has as its system MCF7. The experiment in a line: Antitumor activity against human MCF7 cells assessed as inhibition of cell growth at 40 uM incubated for 48 hrs by MTS assay relative to control.
Test [4] concerns SW480. As to the kind of experiment: Antitumor activity against human SW480 cells assessed as inhibition of cell growth at 40 uM incubated for 48 hrs by MTS assay relative to control.
The test system of test [5] is HL-60. The experiment in a line: Antitumor activity against human HL-60 cells assessed as inhibition of cell growth at 40 uM incubated for 48 hrs by MTS assay relative to control.
Test [6] has as its system A549. As to the kind of experiment: Induction of apoptosis in human A549 cells assessed as late apoptotic cells at 1 uM measured after 24 hrs by Annexin V-PE/7-AAD dual staining based flow cytometry (reference value: […]).
Test [7] deals with A549. The experiment in a line: Induction of apoptosis in human A549 cells assessed as necrotic cells at 1 uM measured after 24 hrs by Annexin V-PE/7-AAD dual staining based flow cytometry (reference value: 0.150 %).
Test [8] has as its system A549. The experiment in a line: Induction of apoptosis in human A549 cells assessed as live cells at 1 uM measured after 24 hrs by Annexin V-PE/7-AAD dual staining based flow cytometry (reference value: 93.3 %). On the technique in general: A flow cytometer gives signals particle by particle.
Test [9] has as its system A549. As to the kind of experiment: Induction of apoptosis in human A549 cells assessed as early apoptotic cells at 1 uM measured after 24 hrs by Annexin V-PE/7-AAD dual staining based flow cytometry (reference value: 4.04 %).

Usually inhibition stands for the change of the read-out against control, counted positive when it falls. With `CCOC(=O)C1(Cc2ccccc2)C(=O)N(CCCN(C)C)c2ccccc21` (centres undefined), the inhibition at 40 µM in [1] stood at 7.46%; in [2] it was 12.8%; in test [3], 28.9%; in test [4] it was 3.98%; in test [5] it was 5.85%.
Taken in the same sequence, the figures for `COc1cc(C(C)=O)ccc1OC(=O)C(C)N1C(=O)c2ccccc2C1=O` (centres undefined) were 6.5%, 6.87%, 15.3%, 4.18% and 8.86%.
The matching figures for `Cc1cccc(NC(=O)CN2C(=O)C(=O)c3ccccc32)c1`: 7.75%, 40.2%, 45.2%, 31.8% and 25.1%.
Taken in the same sequence, the figures for `NC(=O)CN1C(=O)C(O)(CC(=O)c2ccc3c(c2)OCO3)c2ccccc21` (centres undefined) were 11.2%, 11.6%, 6.11%, 14.8% and 21.6%.
Take `CC1=CC(C2CC(=O)N(c3ccccc3C)C2=O)CC2C(=O)N(c3ccccc3C)C(=O)C12` (centres undefined): the inhibition at 40 µM in [1] came out at 4.1%; in [2] it was 9.68%; in [3], 12.3%; in test [4] it was 6.73%; in test [5], 10.7%.
Taken in the same sequence, the figures for `N#CCCCN1C(=O)C(O)(CC(=O)c2ccc3c(c2)OCCO3)c2ccccc21` (centres undefined) were 7.13%, 11.5%, -0.19%, 13.5% and -21.4%.
Take `O=C(NCC1(N2CCOCC2)CCCCC1)c1ccc2c(c1)C(=O)N(c1ccc(F)cc1)C2=O`: the inhibition at 40 µM in [1] came to 9.68%; in [2], 16.4%; in test [3], 13.6%; in test [4], 8.82%; in [5], 11.5%.
With `O=C(CC1(O)C(=O)N(CN2CCOCC2)c2ccccc21)c1ccc(Cl)cc1` (centres undefined), the inhibition at 40 µM in test [1] stood at 1.72%; in test [2], 15.2%; in test [3], 8.23%; in [4], 15.3%; in test [5], 15.6%.
Take `COc1cccc2c1C(=O)c1c(O)c3c(c(O)c1C2=O)C[C@@](O)(C(=O)CO)C[C@@H]3O[C@H]1C[C@H](N)[C@H](O)[C@H](C)O1` [DOXORUBICIN]: the Activity is reported as 18.4% in test [6], 0.965% in test [7], 49.8% in [8] and 30.8% in test [9].

(Values after ChEMBL document CHEMBL5154857, “Discovery of potential novel CRBN modulators by virtual screening and bioassay” (Eur J Med Chem, 2022).)
